ChEMBL document CHEMBL4842380, “Enhanced Properties of a Benzimidazole Benzylpyrazole Lysine Demethylase Inhibitor: Mechanism-of-Action, Binding Site Analysis, and Activity in Cellular Models of Prostate Cancer” (J Med Chem, 2021)
One block for each molecule: values may come before it. Calls of active or inactive are those of the source. The rule behind the calls is not given here.

Experiments:
[1] = molecular target: T1, Lysine-specific demethylase 4E (Homo sapiens, UniProt B2RXH2); assay: Inhibition of N-terminal His6-tagged KDM4E (1 to 337 residues) (unknown origin) expressed in Escherichia coli BL21 (DE3)-R3 preincubated for 10 mins followed by substrate addition by fluorescence based FDH-coupled assay
T1 sequence (B2RXH2 whole entry): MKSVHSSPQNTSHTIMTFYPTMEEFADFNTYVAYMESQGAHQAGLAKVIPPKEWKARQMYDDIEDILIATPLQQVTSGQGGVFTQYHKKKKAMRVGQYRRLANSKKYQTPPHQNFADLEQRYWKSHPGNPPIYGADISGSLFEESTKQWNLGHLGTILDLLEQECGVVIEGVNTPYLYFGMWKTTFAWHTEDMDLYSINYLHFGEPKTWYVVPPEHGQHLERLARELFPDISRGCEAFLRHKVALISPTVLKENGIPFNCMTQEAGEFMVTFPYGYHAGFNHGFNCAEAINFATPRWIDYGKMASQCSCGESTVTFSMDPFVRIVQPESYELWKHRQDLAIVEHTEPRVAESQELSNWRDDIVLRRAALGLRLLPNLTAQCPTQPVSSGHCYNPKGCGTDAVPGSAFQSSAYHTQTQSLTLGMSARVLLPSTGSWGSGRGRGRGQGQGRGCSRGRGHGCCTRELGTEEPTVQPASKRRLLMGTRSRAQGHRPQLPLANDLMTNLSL

DU-145 [2] = assay: Cytotoxicity against human DU-145 cells assessed as growth inhibition after 48 hrs by alamar blue assay; type: functional
LNCaP [3] = assay: Inhibition of KDM4 in human LNCaP cells assessed as increase in H3K9me3 abundance at 25 uM incubated for 48 hrs by Western blot analysis; type: cell-based
LNCaP [4] = assay: Inhibition of KDM4 in human LNCaP cells assessed as decrease in luciferase activity at 25 uM incubated for 48 hrs by luciferase based reporter gene assay; type: cell-based
LNCaP [5] = assay: Inhibition of KDM4 in human LNCaP cells assessed as decrease in PSA gene expression at 25 uM incubated for 48 hrs in presence of DHT by qPCR analysis; type: cell-based
DU-145 [6] = assay: Cytotoxicity against human DU-145 cells assessed as remaining cell viability after 48 hrs by alamar blue assay; type: functional
PC-3 [7] = assay: Cytotoxicity against human PC-3 cells assessed as growth inhibition after 48 hrs by alamar blue assay; type: functional
[8] = Cytotoxicity against human LnCaP cells assessed as remaining cell viability after 48 hrs by alamar blue assay; type: functional, Prostate cell
LNCaP [9] = assay: Cytotoxicity against human LnCaP cells assessed as growth inhibition after 48 hrs by alamar blue assay; type: functional
LNCaP [10] = assay: Inhibition of KDM4 in human LNCaP cells assessed as increase in H3K9me3 level at 25 uM incubated for 48 hrs by Nu-ELISA; type: cell-based
LNCaP [11] = assay: Inhibition of KDM4 in human LNCaP cells assessed as decrease in PSA gene expression at 25 uM incubated for 48 hrs by qPCR analysis; type: cell-based
[12] = Cytotoxicity against human prostate epithelial cells assessed as remaining cell viability after 48 hrs by alamar blue assay; type: functional
PC-3 [13] = assay: Cytotoxicity against human PC-3 cells assessed as remaining cell viability after 48 hrs by alamar blue assay; type: functional
DU-145 [14] = assay: Inhibition of KDM4 in human DU-145 cells assessed as increase in H3K9me3 level at 25 uM incubated for 48 hrs by Nu-ELISA; type: cell-based
LNCaP [15] = assay: Inhibition of KDM4 in human LNCaP cells assessed as decrease in PSA gene expression at 100 uM incubated for 48 hrs by qPCR analysis; type: cell-based
LNCaP [16] = assay: Inhibition of KDM4 in human LNCaP cells assessed as decrease in luciferase activity at 50 uM incubated for 48 hrs by luciferase based reporter gene assay; type: cell-based

IC50 [1]: 24 µM
Compound: CCCc1c(C)nn(-c2nc3ccccc3[nH]2)c1O

IC50 [1]: 191 µM
Compound: C=CCc1c(C)nn(-c2ccccn2)c1O

IC50 [1]: 19 µM
Compound: Cc1nn(-c2nc3ccc(C(=O)O)cc3[nH]2)c(O)c1-c1ccccc1

IC50 [1]: 437 µM
Compound: Cc1c(CCC(=O)O)nn(-c2nc3ccccc3[nH]2)c1O

IC50 [1]: 76 µM
Compound: Cc1cc(O)n(-c2nc3ccccc3[nH]2)n1

IC50 [1]: 160 µM
Compound: Cc1nn(-c2nc3ccccc3[nH]2)c(N)c1-c1ccccc1

Second part, the molecule before the results:

Compound: Cc1nn(-c2ccc(Cl)nn2)c(O)c1-c1ccccc1
IC50 [1]: 68 µM

Compound: Cc1nn(-c2nc3ccccc3n2C)c(O)c1-c1ccccc1
IC50 [1]: 34 µM

Compound: Cc1nn(-c2nc3ccccc3[nH]2)c(O)c1-c1ccccc1
GI50 (DU-145 [2]): 8 µM | inhibition (LNCaP [3]): Active | inhibition (LNCaP [4]): Active | inhibition (LNCaP [5]): Active | Activity (DU-145 [6]): 0% | GI50 (PC-3 [7]): > 50 µM | Activity [8]: 1% | GI50 (LNCaP [9]): 8 µM | inhibition (LNCaP [10]): Active | inhibition (LNCaP [11]): Active | Activity [12]: 2% | Activity (PC-3 [13]): 27% | inhibition (DU-145 [14]): Active

Compound: Cc1nn(-c2nc3ccccc3[nH]2)c(O)c1CCC(=O)O
IC50 [1]: 274 µM

Compound: O=C(O)Cc1cc(O)n(-c2nc3ccccc3[nH]2)n1
IC50 [1]: 347 µM

Compound: CCCCc1nn(-c2nc3ccccc3[nH]2)c(O)c1-c1ccccc1
IC50 [1]: 6 µM

Compound: CN(C)CCCNC(=O)c1ccc(-c2cc(O)c3ncccc3c2)cc1
Activity [8]: 1% | inhibition (LNCaP [15]): inactive | GI50 (LNCaP [9]): 53 µM | inhibition (LNCaP [10]): Active | inhibition (LNCaP [16]): Active | inhibition (DU-145 [14]): Active

Compound: Cc1nn(-c2ccccn2)c(O)c1Cc1ccccc1
IC50 [1]: 57 µM

Compound: C=CCc1c(C)nn(-c2nc3ccccc3[nH]2)c1O
IC50 [1]: 24 µM
